Data published in patent US10023602B2, “Hamamelitannin analogues and uses thereof” (Universiteit Gent, priority 2014, dated 2018).
pEC50: −log10 of the molar value.

Columns and labels:
[1] = test system: methicillin resistant S. aureus Mu50 strain (S. aureus ATCC700699) biofilm; experiment: Biofilm susceptibility to vancomycin, combination treatment regimen (mature biofilm treated with compound plus vancomycin); type: cell-based; settings: for Combin. (100 μM): percentage Colony Forming Units (CFU's) per biofilm: compound 100 μM together with VAN 20 μg/ml on mature biofilm; for Combin. (100 μM): percentage Colony Forming Units (CFU's) per biofilm / Combin. (25 μM): percentage Colony Forming Units (CFU's) per biofilm: compared to the untreated (negative) control; for pEC50: concentration needed to get 50% killing compared to antibiotic alone (VAN 20 μg/ml) and complete killing, read-out: Combin. (EC50); for Combin. (25 μM): percentage Colony Forming Units (CFU's) per biofilm: compound 25 μM together with VAN 20 μg/ml on mature biofilm
Description: (§1) The compounds were evaluated for their effect on biofilm susceptibility both under pre-treatment and combination treatment regimens. In the pre-treatment regimen, a methicillin resistant S. aureus Mu50 strain (S. aureus ATCC700699) was allowed to form biofilms in the presence of the compounds after which the biofilm was treated with vancomycin (20 μg/ml). In the combination treatment regimen, S. aureus Mu50 was allowed to form a mature biofilm after which it was treated with a combination of a compound and vancomycin. In brief, 100 μl of a standardized inoculum (10^8 CFU/ml) was placed in the wells of a round-bottom 96-well microtiter plate. The cells were allowed to adhere to the plate in the absence (combined treatment) or presence (pre-treatment) of the compounds (0.1-250 μM) for 4 h at 37° C. After this adhesion step, non-adhered cells were removed, the wells were rinsed and fresh medium with or without the compounds was added. The plates were incubated for an additional 20 h at 37° C. After this, the medium was removed, biofilms were rinsed with physiological saline and vancomycin (20 μg/ml) was added alone (pre-treatment) or with the compounds (combined treatment, 0.1-250 μM). Plates were placed at 37° C. for 24 h after which medium was removed, wells were rinsed and the surviving cells in each condition were collected. The number of surviving cells under each condition was compared to vancomycin treatment alone and was assessed by conventional plating. The REF compound (hamamelitannin) was also observed for its effect on biofilm susceptibility towards other antibiotics (incl. vancomycin, cefoxitin, tobramycin, cefazolin, cefalonium, daptomycin, linezolide and cephalexin). Biofilms were formed as described above and were treated with the antibiotics alone or in combination with the REF compound (250 μM). The number of surviving cells under each condition was compared to the untreated control biofilm and was assessed by conventional plating.

[2] = test system: methicillin resistant S. aureus Mu50 strain (S. aureus ATCC700699) biofilm; experiment: Biofilm susceptibility to vancomycin, pre-treatment regimen (biofilm formed in presence of compound, then vancomycin); type: cell-based; settings: for Pretreat (100 μM): percentage Colony Forming Units (CFU's) per biofilm: compound 100 μM during biofilm formation; for Pretreat (100 μM): percentage Colony Forming Units (CFU's) per biofilm / Pretreat. (25 μM): percentage Colony Forming Units (CFU's) per biofilm: then VAN 20 μg/ml, compared to the untreated (negative) control; for pEC50: concentration needed to get 50% killing compared to antibiotic alone (VAN 20 μg/ml) and complete killing, read-out: Pretreat. (EC50); for Pretreat. (25 μM): percentage Colony Forming Units (CFU's) per biofilm: compound 25 μM during biofilm formation
Description: as §1

| Compound | Combin. (100 μM): percentage Colony Forming Units (CFU's) per biofilm [1] | Pretreat (100 μM): percentage Colony Forming Units (CFU's) per biofilm [2] | pEC50 [1] | pEC50 [2] | Combin. (25 μM): percentage Colony Forming Units (CFU's) per biofilm [1] | Pretreat. (25 μM): percentage Colony Forming Units (CFU's) per biofilm [2] |
| --- | --- | --- | --- | --- | --- | --- |
| O=C(NC[C@H]1OC[C@@](O)(CNC(=O)c2ccccc2)[C@@H]1O)c1cccc(-c2ccccc2)c1 [compound 168, N-(((2R,3R,4S)-4-(benzamidomethyl)-3,4-dihydroxytetrahydrofuran-2-yl)methyl)-[1,1′-biphenyl]-3-carboxamide] | 32.61 percentage | 9.830 percentage |  |  |  |  |
| O=C(NC[C@]1(O)CO[C@H](CNC(=O)c2ccccc2Cl)[C@H]1O)c1ccc(-c2ccccc2)cc1 [compound 252, N-(((3S,4R,5R)-5-((2-chlorobenzamido)methyl)-3,4-dihydroxytetrahydrofuran-3-yl)methyl)-[1,1′-biphenyl]-4-carboxamide] | 29.40 percentage | 2.25 percentage | 4.16 | 4.93 |  |  |
| Cc1ccc(C(=O)NC[C@]2(O)CO[C@H](CNC(=O)c3ccccc3Cl)[C@H]2O)cc1 [compound 232, 2-chloro-N-(((2R,3R,4S)-3,4-dihydroxy-4-((4-methylbenzamido)methyl)tetrahydrofuran-2-yl)methyl)benzamide] |  |  | 4.38 | 4.10 | 42.16 percentage | 52.41 percentage |
| O=C(NC[C@H]1OC(O)[C@@](O)(CNC(=O)c2ccccc2)[C@@H]1O)c1ccccc1 (stereo partly drawn) [compound 21, N,N′-(((2R,3R,4R)-3,4,5-trihydroxytetrahydrofuran-2,4-diyl)bis(methylene))dibenzamide] | 56.02 percentage | 18.04 percentage | 3.81 | 4.13 |  |  |
| O=C(NC[C@H]1OC(O)[C@@](O)(CNC(=O)c2ccc(O)cc2)[C@@H]1O)c1ccc(O)cc1 (stereo partly drawn) [compound 20, N,N′-(((2R,3R,4R)-3,4,5-trihydroxytetrahydrofuran-2,4-diyl)bis(methylene))bis(4-hydroxybenzamide)] | 27.23 percentage | 19.78 percentage | 4.28 | 4.07 |  |  |
| O=C(NC[C@]1(O)CO[C@H](CNC(=O)c2ccccc2Cl)[C@H]1O)c1ccc(Cl)cc1 [compound 234, 2-chloro-N-(((2R,3R,4S)-4-((4-chlorobenzamido)methyl)-3,4-dihydroxytetrahydrofuran-2-yl)methyl)benzamide] |  |  |  |  | 56.96 percentage | 61.12 percentage |
| CN(C)c1ccc(C(=O)NC[C@H]2OC[C@@](O)(CNC(=O)c3ccccc3)[C@@H]2O)cc1 [compound 156, N-(((2R,3R,4S)-4-(benzamidomethyl)-3,4-dihydroxytetrahydrofuran-2-yl)methyl)-4-(dimethylamino)benzamide] | 11.27 percentage | 16.58 percentage |  |  |  |  |
| O=C(NC[C@]1(O)CO[C@H](CNC(=O)c2ccccc2Cl)[C@H]1O)c1ccoc1 [compound 247, N-(((3S,4R,5R)-5-((2-chlorobenzamido)methyl)-3,4-dihydroxytetrahydrofuran-3-yl)methyl)furan-3-carboxamide] |  |  | 4.12 | 4.16 | 49.94 percentage | 42.14 percentage |
| O=C(NC[C@H]1OC[C@@](O)(CNC(=O)c2ccccc2)[C@@H]1O)c1cccc(F)c1 [compound 161, N-(((2R,3R,4S)-4-(benzamidomethyl)-3,4-dihydroxytetrahydrofuran-2-yl)methyl)-3-fluorobenzamide] | 16.57 percentage | 9.353 percentage |  |  |  |  |
| O=C(NC[C@]1(O)CO[C@H](CNC(=O)C2CCCCC2)[C@H]1O)c1ccccc1 [compound 191, N-(((3S,4R,5R)-5-(cyclohexanecarboxamidomethyl)-3,4-dihydroxytetrahydrofuran-3-yl)methyl)benzamide] | 19.28 percentage | 32.28 percentage |  |  |  |  |
| O=C(NC[C@]1(O)CO[C@H](CN2C(=O)c3ccccc3C2=O)[C@H]1O)c1ccccc1 [compound 173, N-(((3S,4R,5R)-5-((1,3-dioxoisoindolin-2-yl)methyl)-3,4-dihydroxytetrahydrofuran-3-yl)methyl)benzamide] | 8.805 percentage | 11.18 percentage | 5.08 | 5.30 |  |  |
| O=C(NC[C@H]1OC(O)[C@@](O)(CNC(=O)c2cccc(O)c2)[C@@H]1O)c1cccc(O)c1 (stereo partly drawn) [compound 19, N,N′-(((2R,3R,4R)-3,4,5-trihydroxytetrahydrofuran-2,4-diyl)bis(methylene))bis(3-hydroxybenzamide)] | 27.23 percentage | 19.78 percentage | 4.28 | 4.41 |  |  |
| O=C(NC[C@]1(O)CO[C@H](CNC(=O)c2ccccc2Cl)[C@H]1O)c1cccc(Cl)c1 [compound 241, 2-chloro-N-(((2R,3R,4S)-4-((3-chlorobenzamido)methyl)-3,4-dihydroxytetrahydrofuran-2-yl)methyl)benzamide] |  |  |  |  | 81.35 percentage | 98.17 percentage |
| O=C(NC[C@]1(O)CO[C@H](CN2C(=O)c3ccc(Cl)cc3C2=O)[C@H]1O)c1ccccc1 [compound 227, N-(((3S,4R,5R)-5-((5-chloro-1,3-dioxoisoindolin-2-yl)methyl)-3,4-dihydroxytetrahydrofuran-3-yl)methyl)benzamide] | 61.81 percentage | 77.57 percentage |  |  |  |  |
| Cc1ccccc1C(=O)NC[C@]1(O)CO[C@H](CNC(=O)c2ccccc2Cl)[C@H]1O [compound 244, 2-chloro-N-(((2R,3R,4S)-3,4-dihydroxy-4-((2-methylbenzamido)methyl)tetrahydrofuran-2-yl)methyl)benzamide] |  |  | 3.91 | 4.25 | 54.77 percentage | 41.07 percentage |
| O=C(NC[C@]1(O)CO[C@H](CNC(=O)c2ccccc2Cl)[C@H]1O)c1ccccc1 [compound 171, N-(((2R,3R,4S)-4-(benzamidomethyl)-3,4-dihydroxytetrahydrofuran-2-yl)methyl)-2-chlorobenzamide] | 7.776 percentage | 11.56 percentage | 5.10 | 6.41 |  |  |
| O=C(NC[C@]1(O)CO[C@H](CNS(=O)(=O)c2ccc(-c3ccccc3)cc2)[C@H]1O)c1ccccc1 [compound 219, N-(((3S,4R,5R)-5-(([1,1′-biphenyl]-4-sulfonamido)methyl)-3,4-dihydroxytetrahydrofuran-3-yl)methyl)benzamide] | 17.02 percentage | 16.13 percentage |  |  |  |  |
| O=C(NC[C@]1(O)CO[C@H](CN2Cc3ccccc3C2=O)[C@H]1O)c1ccccc1 [compound 230, N-(((3S,4R,5R)-3,4-dihydroxy-5-((1-oxoisoindolin-2-yl)methyl)tetrahydrofuran-3-yl)methyl)benzamide] | 30.15 percentage | 24.90 percentage | 4.22 | 4.24 |  |  |
| O=C(NC[C@H]1OC[C@@](O)(CNC(=O)c2ccccc2)[C@@H]1O)c1ccc2ccccc2c1 [compound 185, N-(((2R,3R,4S)-4-(benzamidomethyl)-3,4-dihydroxytetrahydrofuran-2-yl)methyl)-2-naphthamide] | 36.32 percentage | 22.11 percentage |  |  |  |  |
| O=C(NC[C@]1(O)CO[C@H](CNC(=O)c2ccc(Cl)cc2Cl)[C@H]1O)c1ccccc1 [compound 193, N-(((2R,3R,4S)-4-(benzamidomethyl)-3,4-dihydroxytetrahydrofuran-2-yl)methyl)-2,4-dichlorobenzamide] | 11.25 percentage | 10.80 percentage | 4.93 | 4.94 |  |  |
